Values quoted from earlier work as cited in US9687454B2, “Sublingual and buccal film compositions” (Indivior UK Limited, priority 2009, dated 2017).

Conditions: known value

Structure (SMILES): C=CCN1CC[C@]23c4c5ccc(O)c4O[C@H]2C(=O)CC[C@@]3(O)[C@H]1C5 [naloxone]
- pKa: about 7.94
